In ChEMBL document CHEMBL2407012, “Structural and biological exploration of phe(3)-phe(4)-modified endomorphin-2 peptidomimetics” (ACS Med Chem Lett, 2013):

How the values were obtained:
[1] = target: Delta-type opioid receptor (Homo sapiens, UniProt P41143); test: Displacement of [3H]DPDPE from delta opioid receptor (unknown origin) expressed in CHO cells after 90 mins by liquid scintillation counting; type: cell-based
[2] = target: Mu-type opioid receptor (Homo sapiens, UniProt P35372); test: Displacement of [3H]DAMGO from mu opioid receptor (unknown origin) expressed in CHO cells after 90 mins by liquid scintillation counting; type: cell-based
Mu-type opioid receptor, sequence (P35372 whole entry): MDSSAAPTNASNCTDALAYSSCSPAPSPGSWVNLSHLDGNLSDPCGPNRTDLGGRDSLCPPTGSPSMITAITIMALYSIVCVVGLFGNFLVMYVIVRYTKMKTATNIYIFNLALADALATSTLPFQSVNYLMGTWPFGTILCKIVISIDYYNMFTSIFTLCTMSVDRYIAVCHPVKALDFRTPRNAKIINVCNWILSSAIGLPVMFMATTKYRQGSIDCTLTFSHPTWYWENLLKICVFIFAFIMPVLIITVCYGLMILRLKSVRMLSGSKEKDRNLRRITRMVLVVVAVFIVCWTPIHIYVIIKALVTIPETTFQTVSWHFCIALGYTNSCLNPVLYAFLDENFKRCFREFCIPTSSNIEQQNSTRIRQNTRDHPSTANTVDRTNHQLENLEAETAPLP

Delta-type opioid receptor, sequence (P41143 whole entry): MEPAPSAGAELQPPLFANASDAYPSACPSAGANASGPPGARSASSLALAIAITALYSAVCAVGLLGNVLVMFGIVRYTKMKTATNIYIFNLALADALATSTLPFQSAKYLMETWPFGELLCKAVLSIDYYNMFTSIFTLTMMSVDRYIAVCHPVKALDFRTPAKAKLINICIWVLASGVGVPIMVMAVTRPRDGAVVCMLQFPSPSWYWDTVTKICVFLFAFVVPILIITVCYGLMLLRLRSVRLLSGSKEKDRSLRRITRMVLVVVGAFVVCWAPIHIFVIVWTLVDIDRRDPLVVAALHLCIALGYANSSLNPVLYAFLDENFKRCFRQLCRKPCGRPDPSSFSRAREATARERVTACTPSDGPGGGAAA

NC(=O)[C@H](CNC(=O)C[C@H](Cc1ccccc1)NC(=O)[C@@H]1CCCN1C(=O)[C@@H](N)Cc1ccc(O)cc1)Cc1ccccc1
Ki [1]: 463 nM | Ki [2]: 3.3 nM

NC(=O)C[C@@H]1Cc2ccccc2CN1C(=O)C[C@H](Cc1ccccc1)NC(=O)[C@@H]1CCCN1C(=O)[C@@H](N)Cc1ccc(O)cc1
Ki [1]: 1650 nM | Ki [2]: 20 nM

NC(=O)[C@H]1Cc2ccccc2CN(C(=O)C[C@H](Cc2ccccc2)NC(=O)[C@@H]2CCCN2C(=O)[C@@H](N)Cc2ccc(O)cc2)C1
Ki [1]: 187 nM | Ki [2]: 14 nM

NC(=O)[C@@H]1Cc2ccccc2CN(C(=O)C[C@H](Cc2ccccc2)NC(=O)[C@@H]2CCCN2C(=O)[C@@H](N)Cc2ccc(O)cc2)C1
Ki [1]: 695 nM | Ki [2]: 21 nM

NC(=O)C[C@H](Cc1ccccc1)NC(=O)C[C@H](Cc1ccccc1)NC(=O)[C@@H]1CCCN1C(=O)[C@@H](N)Cc1ccc(O)cc1
Ki [1]: 2800 nM | Ki [2]: 19 nM

NC(=O)[C@H](CNC(=O)[C@H](CNC(=O)[C@@H]1CCCN1C(=O)[C@@H](N)Cc1ccc(O)cc1)Cc1ccccc1)Cc1ccccc1
Ki [1]: 922 nM | Ki [2]: 101 nM

NC(=O)[C@@H](CNC(=O)C[C@H](Cc1ccccc1)NC(=O)[C@@H]1CCCN1C(=O)[C@@H](N)Cc1ccc(O)cc1)Cc1ccccc1
Ki [1]: 1350 nM | Ki [2]: 5.5 nM
